Calls of active or inactive are those of the source.
Tests used:
[1] = viability of PTEN-deleted HCT116 cells – cell-based, HCT116 PTEN knockout, dose response (AID 1047); assay type: functional;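 also: HCT116 colon tumor cells with PTEN knocked out; cells exposed to compound for 60 hours before readout; potency for loss of cell viability measured by luminescence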
[2] = viability of HCT116 lacking mutant beta-catenin – cell-based, human colon tumor, dose response (AID 1045); assay type: functional;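 also: HCT116 colon tumor cells with beta catenin knocked out; cells exposed to compound for 60 hours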
[3] = biological target: Scavenger receptor class B member 1 (Mus musculus, UniProt Q61009); assay: mouse SR-BI DiI-HDL uptake blockers – ldlA[mSR-BI] cells, fluorescence, cherry pick, dose response (AID 493194); assay type: functional, cell-based;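 also: cellular uptake of fluorescent DiI-labeled HDL measured as cell fluorescence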
[4] = biological target: Acyl-homoserine lactone acylase PvdQ (Pseudomonas aeruginosa (strain LESB58), UniProt Q9I194); assay: PvdQ acylase enzyme activity blockers – biochemical, fluorescence, plate reader and imaging, cherry-picks, dose response (AID 493231)
[5] = biological target: T1, Ubiquitin-conjugating enzyme E2 N (Homo sapiens, UniProt P61088); assay type: functional;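 also: Dose-response confirmation in a TR-FRET assay detecting UBC13-driven polyubiquitin chain formation, inhibition measured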
T1 sequence (P61088 whole entry): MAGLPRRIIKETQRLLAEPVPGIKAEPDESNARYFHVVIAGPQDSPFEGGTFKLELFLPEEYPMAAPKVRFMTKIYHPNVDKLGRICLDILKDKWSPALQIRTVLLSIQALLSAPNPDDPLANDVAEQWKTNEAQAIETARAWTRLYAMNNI

[6] = biological target: T2, Protein skinhead-1 (Caenorhabditis elegans, UniProt P34707); assay type: functional
T2 sequence (P34707 whole entry): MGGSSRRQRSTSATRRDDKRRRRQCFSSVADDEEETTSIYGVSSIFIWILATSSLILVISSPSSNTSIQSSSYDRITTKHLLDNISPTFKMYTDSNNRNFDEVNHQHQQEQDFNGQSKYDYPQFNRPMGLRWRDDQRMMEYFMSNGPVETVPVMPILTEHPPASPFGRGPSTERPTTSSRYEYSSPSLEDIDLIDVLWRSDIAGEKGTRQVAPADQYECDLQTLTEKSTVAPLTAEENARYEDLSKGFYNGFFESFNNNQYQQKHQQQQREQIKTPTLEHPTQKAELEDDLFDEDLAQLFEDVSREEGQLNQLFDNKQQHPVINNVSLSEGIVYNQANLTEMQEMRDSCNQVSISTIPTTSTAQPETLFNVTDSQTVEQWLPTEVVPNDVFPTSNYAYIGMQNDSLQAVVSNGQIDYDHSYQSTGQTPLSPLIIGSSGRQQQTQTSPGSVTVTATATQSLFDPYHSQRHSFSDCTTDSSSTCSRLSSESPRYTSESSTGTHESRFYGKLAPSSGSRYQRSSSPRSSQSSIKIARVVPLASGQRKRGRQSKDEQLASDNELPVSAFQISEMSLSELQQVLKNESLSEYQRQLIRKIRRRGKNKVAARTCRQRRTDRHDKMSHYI

[7] = biological target: T3, Tyrosine-protein phosphatase non-receptor type 7 (Homo sapiens, UniProt P35236); assay type: functional
T3 sequence (P35236 whole entry): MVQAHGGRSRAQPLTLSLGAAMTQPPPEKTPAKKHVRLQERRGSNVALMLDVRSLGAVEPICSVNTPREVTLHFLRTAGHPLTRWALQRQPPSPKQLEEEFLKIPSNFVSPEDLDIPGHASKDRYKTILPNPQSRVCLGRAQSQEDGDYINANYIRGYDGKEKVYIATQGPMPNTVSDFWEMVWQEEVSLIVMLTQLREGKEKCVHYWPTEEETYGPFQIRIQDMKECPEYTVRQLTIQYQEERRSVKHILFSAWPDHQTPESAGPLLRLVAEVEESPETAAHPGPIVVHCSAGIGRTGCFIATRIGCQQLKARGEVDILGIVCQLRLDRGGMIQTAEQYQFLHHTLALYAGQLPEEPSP

[8] = biological target: Glyceraldehyde-3-phosphate dehydrogenase (Homo sapiens, UniProt P04406)
[9] = biological target: T4, Dual specificity protein phosphatase 6 (Rattus norvegicus, UniProt Q64346)
T4 sequence (Q64346 whole entry): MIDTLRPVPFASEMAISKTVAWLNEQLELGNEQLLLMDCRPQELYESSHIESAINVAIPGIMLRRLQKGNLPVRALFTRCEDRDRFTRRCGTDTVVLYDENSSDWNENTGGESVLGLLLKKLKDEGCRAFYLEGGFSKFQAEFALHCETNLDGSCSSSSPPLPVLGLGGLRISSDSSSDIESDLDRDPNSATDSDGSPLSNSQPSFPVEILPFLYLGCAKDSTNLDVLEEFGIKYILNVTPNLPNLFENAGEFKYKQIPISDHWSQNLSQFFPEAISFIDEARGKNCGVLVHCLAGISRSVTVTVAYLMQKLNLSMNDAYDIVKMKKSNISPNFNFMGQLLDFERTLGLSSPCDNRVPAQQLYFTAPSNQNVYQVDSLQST

[10] = biological target: T4, Dual specificity protein phosphatase 6; assay type: functional
[11] = biological target: T5, Voltage-gated N-type calcium channel alpha-1B subunit/Amyloid beta A4 precursor protein-binding family A member 1 (Homo sapiens, UniProt Q00975+Q02410); assay type: protein assay
[12] = biological target: T5, Voltage-gated N-type calcium channel alpha-1B subunit/Amyloid beta A4 precursor protein-binding family A member 1; assay type: protein assay; remark: listed apart in the source
[13] = biological target: Glucose-6-phosphate 1-dehydrogenase (Homo sapiens, UniProt P11413); assay: inhibition of Homo sapiens G6PD, dose series – biochemical, fluorescence, selectivity assay for P. falciparum G6PD inhibitor project, dose response (AID 504792); assay type: functional
[14] = biological target: T5, Voltage-gated N-type calcium channel alpha-1B subunit/Amyloid beta A4 precursor protein-binding family A member 1; assay: disruptors of Mint-PDZ/N-type channel peptide interaction – biochemical, HTRF, set 2, SAR follow-up (AID 434980); assay type: functional
[15] = biological target: T5, Voltage-gated N-type calcium channel alpha-1B subunit/Amyloid beta A4 precursor protein-binding family A member 1; assay: disruptors of Mint-PDZ/N-type channel peptide interaction – biochemical, HTRF, SAR follow-up (AID 2489); assay type: functional
[16] = biological target: Bcl-2-like protein 10 (Homo sapiens, UniProt Q9HD36); assay: Bcl-B/TR3 peptide binding disruption – biochemical, fluorescence polarization, FITC-TR3 peptide, selectivity assay for Bfl-1 inhibitor project, primary screen (AID 748);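 also: fluorescence polarization from a fluorescein-labelled TR3 peptide binding purified Bcl-B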
[17] = biological target: Bifunctional protein GlmU (Mycobacterium tuberculosis, UniProt P9WMN3); assay: Inhibitors of Mycobacterial Glucosamine-1-phosphate acetyl transferase (GlmU). Secondary screen.; set-up: species or system Mycobacterium tuberculosis H37Rv
[18] = biological target: T6, Carboxy-terminal domain RNA polymerase II polypeptide A small phosphatase 1 (Homo sapiens, UniProt Q9GZU7); assay: CTDSP1 inhibitors, concentration-response, biochemical, absorbance readout, ultra-high-throughput screen actives (AID 540297); assay type: functional
T6 sequence (Q9GZU7 whole entry): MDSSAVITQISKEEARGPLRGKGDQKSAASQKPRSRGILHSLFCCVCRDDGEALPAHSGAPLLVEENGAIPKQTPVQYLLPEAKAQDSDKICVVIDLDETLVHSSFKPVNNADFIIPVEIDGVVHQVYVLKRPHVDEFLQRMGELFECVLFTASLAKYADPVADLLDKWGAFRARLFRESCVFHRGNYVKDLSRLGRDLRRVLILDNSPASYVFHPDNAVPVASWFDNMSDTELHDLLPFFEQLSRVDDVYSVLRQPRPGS

[19] = biological target: T7, Histone-lysine N-methyltransferase NSD2 (Homo sapiens, UniProt O96028); assay type: biochemical
T7 sequence (O96028 whole entry): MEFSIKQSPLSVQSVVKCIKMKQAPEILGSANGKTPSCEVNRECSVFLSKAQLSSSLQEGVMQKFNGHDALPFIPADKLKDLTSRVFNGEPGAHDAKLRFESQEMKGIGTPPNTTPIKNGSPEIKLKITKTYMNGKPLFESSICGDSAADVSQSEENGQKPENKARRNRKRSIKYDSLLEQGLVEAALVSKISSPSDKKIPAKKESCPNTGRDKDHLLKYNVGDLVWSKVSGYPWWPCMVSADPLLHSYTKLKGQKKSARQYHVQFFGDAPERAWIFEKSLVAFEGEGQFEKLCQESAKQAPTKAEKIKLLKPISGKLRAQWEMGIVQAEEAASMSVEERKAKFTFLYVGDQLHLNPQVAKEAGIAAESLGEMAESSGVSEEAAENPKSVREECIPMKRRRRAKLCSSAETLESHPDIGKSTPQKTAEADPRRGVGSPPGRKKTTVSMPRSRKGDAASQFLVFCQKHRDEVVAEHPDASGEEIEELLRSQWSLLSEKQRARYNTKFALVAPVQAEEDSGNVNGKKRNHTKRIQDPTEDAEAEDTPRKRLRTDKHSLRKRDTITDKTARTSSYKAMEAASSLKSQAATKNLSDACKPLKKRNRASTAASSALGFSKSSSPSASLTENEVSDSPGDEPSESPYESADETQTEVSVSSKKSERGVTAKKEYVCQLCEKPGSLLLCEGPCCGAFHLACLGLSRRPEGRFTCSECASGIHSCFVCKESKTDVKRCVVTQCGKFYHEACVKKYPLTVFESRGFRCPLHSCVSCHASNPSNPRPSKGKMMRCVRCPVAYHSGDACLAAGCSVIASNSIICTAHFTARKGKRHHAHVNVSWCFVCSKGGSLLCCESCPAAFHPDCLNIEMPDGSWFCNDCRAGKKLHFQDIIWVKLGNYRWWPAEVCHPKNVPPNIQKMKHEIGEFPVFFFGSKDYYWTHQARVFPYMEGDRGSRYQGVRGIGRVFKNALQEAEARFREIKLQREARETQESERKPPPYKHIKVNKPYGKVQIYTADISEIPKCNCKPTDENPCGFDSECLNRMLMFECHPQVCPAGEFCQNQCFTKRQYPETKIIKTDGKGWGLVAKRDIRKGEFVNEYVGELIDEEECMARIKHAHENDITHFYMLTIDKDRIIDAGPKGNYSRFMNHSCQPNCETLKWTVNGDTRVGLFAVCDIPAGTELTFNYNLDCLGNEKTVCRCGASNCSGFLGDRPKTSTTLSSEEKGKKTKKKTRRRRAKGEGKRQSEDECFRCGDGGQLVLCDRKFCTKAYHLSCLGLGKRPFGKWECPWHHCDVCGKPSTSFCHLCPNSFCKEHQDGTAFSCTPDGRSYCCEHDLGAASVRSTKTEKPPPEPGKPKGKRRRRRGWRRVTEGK

[20] = tested on: HeLa; assay: viability loss in HeLa cells – cell-based, 24 h, cherry-picked samples, cytotoxicity control, dose response (AID 504726); assay type: functional; details: Homo sapiens;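 also: potency for cytotoxicity as loss of luminescence signal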
[21] = tested on: HEK293; assay: PMA/Ionomycin induced NF-kB luciferase assay in 293- NF-kB-Luc stable cells. [Related pubchem assays: 1299, 1270, 1295, 1375, 1287, 1281, 1293, 1291, 1289, 1280, 465, 1364, 1282, 1372, 1365, 1370, 1367, 1366, 1269, 1373, 1292, 1290, 1302, 1371, 1283, 1271, 1294, 1374, 1368, 1369 ]; assay type: functional, cell-based; details: Homo sapiens
[22] = biological target: Luciferin 4-monooxygenase (Photinus pyralis, UniProt P08659); assay: In vitro luciferase assay using purified luciferase. [Related pubchem assays: 1299, 1270, 1295, 1375, 1287, 1281, 1293, 1291, 1289, 1280, 465, 1364, 1282, 1372, 1365, 1370, 1367, 1366, 1266, 1373, 1292, 1290, 1302, 1371, 1283, 1271, 1294, 1374, 1368, 1369 ]
[23] = tested on: HEK293; assay: PMA/Ionomycin-induced IL-8 production in HEK293- NF-kB-Luc stable cells. [Related pubchem assays: 1299, 1295, 1375, 1287, 1281, 1293, 1291, 1289, 1280, 465, 1364, 1282, 1372, 1365, 1367, 1366, 1266, 1269, 1373, 1292, 1290, 1302, 1371, 1283, 1271, 1294, 1374, 1368, 1369 ]; assay type: functional, cell-based; details: Homo sapiens
[24] = tested on: HEK293; assay: Cytotoxicity assay in HEK293 cells. [Related pubchem assays (depositor defined):AID1266, AID1269, AID1270, AID1271, AID1280, AID1281, AID1282, AID1283, AID1287, AID1289, AID1290, AID1291, AID1292, AID1293, AID1294, AID1295, AID1299, AID1302, AID1364, AID1365, AID1366, AID1367, AID1369, AID1370, AID1371, AID1372, AID1373, AID1374, AID1375, AID1384 …; assay type: functional, cell-based; details: Homo sapiens
[25] = tested on: HEK293; assay: TNF Induced NF-kB Luciferase in 293-NF-kB-Luc Stable Cells. [Related pubchem assays: 1266, 1299, 1269, 1373, 1292, 1290, 1302, 1371, 1283, 1270, 1295, 1271, 1375, 1294, 1374, 1281, 1293, 1291, 1289, 1280, 465, 1368, 1364, 1282, 1372, 1365, 1369, 1370, 1367, 1366 ]; assay type: functional, cell-based; details: Homo sapiens

T5 sequence (Q00975 whole entry): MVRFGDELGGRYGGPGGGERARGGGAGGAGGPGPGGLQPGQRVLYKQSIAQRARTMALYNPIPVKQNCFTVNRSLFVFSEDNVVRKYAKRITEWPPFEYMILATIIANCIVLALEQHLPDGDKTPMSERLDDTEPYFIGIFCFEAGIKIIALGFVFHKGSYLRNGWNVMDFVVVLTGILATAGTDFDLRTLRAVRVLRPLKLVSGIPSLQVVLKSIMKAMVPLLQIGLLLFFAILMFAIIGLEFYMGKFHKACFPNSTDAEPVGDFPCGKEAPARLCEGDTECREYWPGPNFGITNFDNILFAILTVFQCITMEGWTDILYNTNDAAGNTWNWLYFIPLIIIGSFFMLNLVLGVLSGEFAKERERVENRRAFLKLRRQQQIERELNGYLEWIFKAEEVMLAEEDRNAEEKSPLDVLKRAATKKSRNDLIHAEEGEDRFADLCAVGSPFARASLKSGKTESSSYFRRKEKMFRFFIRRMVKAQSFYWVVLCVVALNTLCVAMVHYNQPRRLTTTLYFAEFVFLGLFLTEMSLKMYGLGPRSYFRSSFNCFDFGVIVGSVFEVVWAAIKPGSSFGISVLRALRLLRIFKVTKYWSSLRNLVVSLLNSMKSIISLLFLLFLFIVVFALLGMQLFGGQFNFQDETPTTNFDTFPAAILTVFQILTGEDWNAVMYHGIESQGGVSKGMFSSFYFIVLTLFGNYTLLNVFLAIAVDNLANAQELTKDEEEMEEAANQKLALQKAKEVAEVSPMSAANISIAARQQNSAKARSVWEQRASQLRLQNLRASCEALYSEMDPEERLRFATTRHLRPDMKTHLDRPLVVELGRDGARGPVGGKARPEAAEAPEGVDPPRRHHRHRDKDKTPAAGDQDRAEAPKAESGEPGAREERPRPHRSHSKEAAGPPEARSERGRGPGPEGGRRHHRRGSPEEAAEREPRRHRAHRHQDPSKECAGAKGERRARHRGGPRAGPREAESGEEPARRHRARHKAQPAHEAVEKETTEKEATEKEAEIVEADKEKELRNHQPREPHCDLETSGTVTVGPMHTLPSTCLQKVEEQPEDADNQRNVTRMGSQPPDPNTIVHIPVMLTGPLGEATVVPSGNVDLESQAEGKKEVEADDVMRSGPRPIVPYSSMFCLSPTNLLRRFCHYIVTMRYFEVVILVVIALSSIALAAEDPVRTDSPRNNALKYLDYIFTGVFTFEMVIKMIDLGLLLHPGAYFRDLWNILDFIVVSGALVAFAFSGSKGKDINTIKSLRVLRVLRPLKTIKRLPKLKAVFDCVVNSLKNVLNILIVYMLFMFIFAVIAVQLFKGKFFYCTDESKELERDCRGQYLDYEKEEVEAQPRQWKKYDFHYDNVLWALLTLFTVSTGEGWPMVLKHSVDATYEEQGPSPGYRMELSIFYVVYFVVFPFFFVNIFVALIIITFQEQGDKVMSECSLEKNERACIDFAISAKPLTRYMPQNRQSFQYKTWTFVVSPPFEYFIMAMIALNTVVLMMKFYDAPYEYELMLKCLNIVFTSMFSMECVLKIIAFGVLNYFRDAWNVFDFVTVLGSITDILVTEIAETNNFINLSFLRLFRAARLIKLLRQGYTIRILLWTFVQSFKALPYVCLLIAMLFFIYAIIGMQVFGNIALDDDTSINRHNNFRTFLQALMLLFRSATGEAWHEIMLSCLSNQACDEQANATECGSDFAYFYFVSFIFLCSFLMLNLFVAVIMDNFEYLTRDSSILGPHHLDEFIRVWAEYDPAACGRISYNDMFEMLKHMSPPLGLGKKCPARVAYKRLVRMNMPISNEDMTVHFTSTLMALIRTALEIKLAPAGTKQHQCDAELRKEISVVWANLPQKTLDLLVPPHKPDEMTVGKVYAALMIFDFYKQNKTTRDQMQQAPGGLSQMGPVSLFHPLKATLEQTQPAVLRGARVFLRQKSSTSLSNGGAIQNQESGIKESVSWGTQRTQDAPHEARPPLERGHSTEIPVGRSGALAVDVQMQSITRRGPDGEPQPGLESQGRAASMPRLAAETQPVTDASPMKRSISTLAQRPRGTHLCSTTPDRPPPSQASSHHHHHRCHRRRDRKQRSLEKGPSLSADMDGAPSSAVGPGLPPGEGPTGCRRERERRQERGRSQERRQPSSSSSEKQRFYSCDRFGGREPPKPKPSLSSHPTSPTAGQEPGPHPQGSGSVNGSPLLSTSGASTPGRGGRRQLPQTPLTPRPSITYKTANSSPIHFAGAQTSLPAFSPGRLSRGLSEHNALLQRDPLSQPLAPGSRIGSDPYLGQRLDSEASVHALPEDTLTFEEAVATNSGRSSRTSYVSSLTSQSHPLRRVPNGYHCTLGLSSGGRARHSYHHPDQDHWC
T5 sequence (Q02410 whole entry): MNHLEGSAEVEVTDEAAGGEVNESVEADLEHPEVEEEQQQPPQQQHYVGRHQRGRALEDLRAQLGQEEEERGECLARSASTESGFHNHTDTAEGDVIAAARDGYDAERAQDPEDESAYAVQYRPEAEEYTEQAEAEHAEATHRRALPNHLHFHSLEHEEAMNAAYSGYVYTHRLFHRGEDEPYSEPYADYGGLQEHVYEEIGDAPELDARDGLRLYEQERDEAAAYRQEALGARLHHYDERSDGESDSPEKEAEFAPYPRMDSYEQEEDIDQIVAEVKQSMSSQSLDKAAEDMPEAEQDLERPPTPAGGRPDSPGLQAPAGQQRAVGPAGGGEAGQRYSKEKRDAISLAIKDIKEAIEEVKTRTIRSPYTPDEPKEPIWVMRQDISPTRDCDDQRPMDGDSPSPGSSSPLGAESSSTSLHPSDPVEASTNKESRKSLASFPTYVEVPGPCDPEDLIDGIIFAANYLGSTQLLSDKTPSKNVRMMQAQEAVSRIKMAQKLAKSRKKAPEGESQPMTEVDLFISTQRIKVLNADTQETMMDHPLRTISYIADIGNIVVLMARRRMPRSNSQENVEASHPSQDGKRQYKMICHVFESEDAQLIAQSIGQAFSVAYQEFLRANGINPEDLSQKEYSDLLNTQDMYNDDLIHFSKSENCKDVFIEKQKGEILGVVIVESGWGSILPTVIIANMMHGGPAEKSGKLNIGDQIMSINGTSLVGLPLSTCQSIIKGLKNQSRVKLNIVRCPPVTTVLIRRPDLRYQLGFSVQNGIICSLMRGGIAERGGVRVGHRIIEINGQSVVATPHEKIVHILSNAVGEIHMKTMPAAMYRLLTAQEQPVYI
Sequence of Scavenger receptor class B member 1 (Q61009 whole entry): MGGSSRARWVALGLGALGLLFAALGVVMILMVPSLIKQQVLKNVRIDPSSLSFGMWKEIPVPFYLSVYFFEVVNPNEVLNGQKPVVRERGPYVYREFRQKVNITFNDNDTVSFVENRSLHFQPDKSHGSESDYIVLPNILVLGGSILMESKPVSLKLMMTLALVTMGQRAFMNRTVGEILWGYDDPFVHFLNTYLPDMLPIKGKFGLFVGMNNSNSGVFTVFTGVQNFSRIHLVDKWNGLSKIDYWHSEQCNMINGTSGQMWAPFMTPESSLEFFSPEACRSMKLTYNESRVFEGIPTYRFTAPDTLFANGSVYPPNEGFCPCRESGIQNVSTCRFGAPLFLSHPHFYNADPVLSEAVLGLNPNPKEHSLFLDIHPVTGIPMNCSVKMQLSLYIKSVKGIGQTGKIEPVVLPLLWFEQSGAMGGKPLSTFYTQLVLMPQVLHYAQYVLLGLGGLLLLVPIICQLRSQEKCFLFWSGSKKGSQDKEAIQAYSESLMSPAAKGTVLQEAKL
Sequence of Acyl-homoserine lactone acylase PvdQ (Q9I194 24-193 limits assumed): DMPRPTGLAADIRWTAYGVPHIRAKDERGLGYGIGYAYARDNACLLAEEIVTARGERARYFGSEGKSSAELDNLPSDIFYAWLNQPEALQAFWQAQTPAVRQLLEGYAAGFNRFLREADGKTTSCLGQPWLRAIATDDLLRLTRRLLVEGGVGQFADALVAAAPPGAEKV
Sequence of Acyl-homoserine lactone acylase PvdQ (Q9I194 217-762 limits assumed): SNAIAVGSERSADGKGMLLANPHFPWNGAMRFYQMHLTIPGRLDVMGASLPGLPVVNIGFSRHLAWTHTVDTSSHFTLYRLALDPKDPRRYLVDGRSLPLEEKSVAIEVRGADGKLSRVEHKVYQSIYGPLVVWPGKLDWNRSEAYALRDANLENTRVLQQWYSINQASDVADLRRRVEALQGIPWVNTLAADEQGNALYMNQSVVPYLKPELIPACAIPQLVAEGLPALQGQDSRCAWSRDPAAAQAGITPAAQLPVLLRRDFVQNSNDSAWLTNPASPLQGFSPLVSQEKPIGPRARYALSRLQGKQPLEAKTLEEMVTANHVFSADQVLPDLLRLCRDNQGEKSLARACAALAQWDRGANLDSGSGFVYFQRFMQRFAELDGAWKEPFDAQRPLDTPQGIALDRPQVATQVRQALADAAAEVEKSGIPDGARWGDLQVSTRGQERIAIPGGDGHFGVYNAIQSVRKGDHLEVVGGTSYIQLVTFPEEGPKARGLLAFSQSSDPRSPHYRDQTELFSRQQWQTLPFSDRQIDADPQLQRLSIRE
Sequence of Glyceraldehyde-3-phosphate dehydrogenase (P04406 whole entry): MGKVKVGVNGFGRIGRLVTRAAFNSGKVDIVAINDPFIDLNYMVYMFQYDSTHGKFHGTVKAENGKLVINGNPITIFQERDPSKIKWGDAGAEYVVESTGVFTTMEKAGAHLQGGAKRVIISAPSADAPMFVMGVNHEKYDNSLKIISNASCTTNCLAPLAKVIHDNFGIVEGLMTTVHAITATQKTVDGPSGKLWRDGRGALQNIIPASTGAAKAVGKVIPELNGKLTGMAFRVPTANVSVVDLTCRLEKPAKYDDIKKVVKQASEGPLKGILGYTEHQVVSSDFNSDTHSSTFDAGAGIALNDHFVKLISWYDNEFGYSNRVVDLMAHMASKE
Sequence of Bcl-2-like protein 10 (Q9HD36 whole entry): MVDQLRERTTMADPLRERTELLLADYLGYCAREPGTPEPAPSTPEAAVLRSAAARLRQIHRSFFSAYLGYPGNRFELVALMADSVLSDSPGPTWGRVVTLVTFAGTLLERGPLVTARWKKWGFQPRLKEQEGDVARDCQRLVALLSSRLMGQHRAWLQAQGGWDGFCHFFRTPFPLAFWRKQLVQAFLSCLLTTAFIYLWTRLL

## COc1cc(C2CC(=O)c3c([nH]c(C(=O)OCCOC(C)C)c3C)C2)cc(OC)c1OC (stereo not given)
[1]
  EC50: 38.4 µM (active)
[2]
  EC50: 31 µM (active)
[3]
  AC50: 18 µM (active)

## Cc1cccn2c(=O)c(C=O)c(N3CCCCCC3)nc12
[4]
  AC50: 24.8 µM (active)
[5]
  IC50: > 20 µM (inactive)
[6]
  IC50: > 100 µM (inactive)

## CCn1c(=O)n(CC)c(=O)n([C@@H](Cc2ccccc2)C(=O)O)c1=O
[7]
  IC50: > 100 µM (not active)
[8]
  IC50: > 100 µM (not active)
[9]
  IC50: > 100 µM (inactive)
[10]
  IC50: > 100 µM (inactive)

## Cc1ccc(/C=C/C(=O)NCc2ccc(S(N)(=O)=O)cc2)o1
[11]
  IC50: 8.37 µM (active)
[12]
  IC50: 3.12 µM (active)
[13]
  IC50: > 80 µM (inactive)
[14]
  IC50: 4.23 µM (active)
[15]
  IC50: 3.34 µM (active)

## O=C(c1coc(=O)c(Br)c1)N1CCOCC1
[16]
  IC50: 34 µM (active)
[17]
  IC50: 88.3 µM (active)
[18]
  IC50: 7.34 µM (active)
[19]
  AC50: 12.1 µM (active)

## Brc1ccc(-c2noc(COc3ccc4c(c3)CCC4)n2)o1
[20]
  AC50: 337 µM (active)

## CN(C)c1ncnc2c1ncn2[C@@H]1OC(CO)C(O)C1O (stereo not given in full)
[21]
  EC50: 1.85 µM (active)
[22]
  EC50: > 8 µM (not active)
[23]
  EC50: > 8 µM (not active)
[24]
  EC50: 12.2 µM (inactive)
[25]
  EC50: > 8 µM (not active)
